Key:
[1] = test system: Corynebacterium ammoniagenes AGRI45-11 (VKPM B-8009); assay type: cell-based; details: for Effect on growth of the XMP producer strain: in high concentration, strain AGRI45-11
Experimental: (§1) Corynebacterium ammoniagenes AGRI45-11 (VKPM B-8009) was treated with 50 μg/ml of NTG for 20 minutes. Then cells were plated on PYM medium having the composition (g/L): peptone—10.0, yeast extract—10.0, meat extract—5.0, NaCl—2.5, agar—20.0, and containing 40 g/L, or 50 g/L, or 60 g/L glycine. The inoculated plates were incubated at 30° C. for 5 days.
Corynebacterium ammoniagenes AGRI45-11 (VKPM B-8009) was treated with NTG, and cells were plated on the PYM medium as in Example 1, containing 45 μg/ml, or 50 μg/ml, or 55 μg/ml, or 60 μg/ml polymyxin. The inoculated plates were incubated at 30° C. for 5 days.
(§2) The parental strain Corynebacterium ammoniagenes AGRI45-11 (VKPM B-8009) was streaked onto PYM medium of Example 1, containing 5, 15, 30 or 50 μg/ml of rifampicin instead of glycine and inoculated plates were incubated at 34° C. for 3 days. The mutants resistant to rifampicin was selected from among spontaneously appeared colonies.
A series of mutants resistant to 50 or 100 μg/ml oligomycin was selected from the strain Corynebacterium anmoniagenes AGRI45-11 (VKPM B-8009) using the procedure, described in the Example 1, but oligomycin was used instead of glycine.
Corynebacterium ammoniagenes AGRI45-11 (VKPM B-8009) was treated with NTG, and cells were plated on PYM medium as in Example 1, containing 2, 4 or 6 μg/ml of CCCP instead of glycine. The inoculated plates were incubated at 30° C. for 5 days. […] This strain and the parent strain Corynebacterium ammoniagenes AGRI45-11 (VKPM B-8009) were each cultivated at 32° C. for 20 h with aeration in a seed medium as in the Example 1. Then 0.3 ml of the obtained culture was inoculated into 3 ml of the fermentation medium of the Example 1, in 20×200 mm test tubes, and cultivated at 32° C. for 72 hours with a rotary shaker. After the cultivation, an accumulated amount of XMP in the medium was determined by known method.
Corynebacterium ammoniagenes AGRI45-11 (VKPM B-8009) was treated with NTG as in Example 1, aliquots were introduced into 20×200 mm test tubes and incubated at 32° C. for 20 h with shaking in minimal medium having the following composition (see below) with a rotary shaker. Then the cells were collected and plated on the minimal medium agar and containing several combinations of the inhibitors:
(§3) The mutants resistant to the analogue were obtained using the procedure described in Example 6, except for the only combinations of the inhibitors was applied: DL-methionine sulfone-10 mg/ml +DL-methionine-20 mg/ml.

[2] = test system: Corynebacterium ammoniagenes AGRI101-51 (VKPM B-8010); experiment: Growth of the polymyxin-resistant mutant in the presence of polymyxin; assay type: cell-based; details: mutant strain AGRI 101-51
[3] = test system: Gram-positive bacterium Corynebacterium ammoniagenes; experiment: Growth inhibition of Corynebacterium ammoniagenes by polymyxin B; assay type: cell-based; details: high concentrations
Description: Polymyxin B is a polypeptide antibiotics effective against Gram-negative bacteria. The cell membrane of the bacteria is considered to be the target of the antibiotic. […] The mutations conferring resistance to polymyxin B may affect cytoplasmic membrane and mimic a stress condition, inducing XMP efflux transporter. Therefore the mutants resistant to growth inhibition by the drug were selected.

[4] = test system: Corynebacterium ammoniagenes AGRI97-52 (VKPM B-8008); experiment: Growth of the CCCP-resistant mutant with CCCP; assay type: cell-based; details: mutant strain AGRI97-52
[5] = test system: Corynebacterium ammoniagenes AGRI10-52 (VKPM B-8006); details: mutant strain AGRI10-52
Experimental: as §1

[6] = test system: Corynebacterium ammoniagenes AGRI93-38 (VKPM B-8003); experiment: Growth of the rifampicin-resistant mutant with rifampicin; assay type: cell-based; details: mutant strain AGRI93-38
Experimental: as §2, with “colonies. Among the mutants the most productive strain Corynebacterium ammoniagenes AGRI93-38 (VKPM B-8003) was selected.” for “colonies.”

[7] = test system: Corynebacterium ammoniagenes AGRI11-51 (VKPM B-8005); experiment: Growth of the methionine sulfoxide-resistant mutant with DL-methionine sulfoxide + DL-methionine; assay type: cell-based; details: mutant strain AGRI11-51
Experimental: Then the cells were collected and plated on the minimal medium agar and containing several combinations of the inhibitors:
Mutants which appeared after 4 to 8 days incubation were picked up and tested for their XMP productivity. Among them the strain Corynebacterium ammoniagenes AGRI11-51 (VKPM B-8005) was selected. This strain and the parent strain Corynebacterium anmoniagenes AGRI45-11 (VKPM B-8009) were each cultivated at 32° C. for 20 h with aeration in a seed medium as in the Example 1. Then 0.3 ml of the obtained culture was inoculated into 3 ml of the fermentation medium of the Example 1, in 20×200 mm test tubes, and cultivated at 32° C. for 72 hours with a rotary shaker. After the cultivation, an accumulated amount of XMP in the medium was determined by known method.

[8] = test system: Corynebacterium ammoniagenes AGRI47-51 (VKPM B-8007); experiment: Growth of the methionine sulfone-resistant mutant with DL-methionine sulfone + DL-methionine; assay type: cell-based; details: mutant strain AGRI47-51
Experimental: as §3
Among the mutants which appeared after 4 to 8 days incubation the strain Corynebacterium ammoniagenes AGRI47-51 (VKPM B-8007) was selected. This strain and the parent strain Corynebacterium ammoniagenes AGRI45-11 (VKPM B-8009) were each cultivated at 32° C. for 20 h with aeration in a seed medium as in the Example 1. Then 0.3 ml of the obtained culture was inoculated into 3 ml of the fermentation medium of the Example 1, in 20×200 mm test tubes, and cultivated at 32° C. for 72 hours with a rotary shaker.

[9] = test system: Corynebacterium ammoniagenes AGRI67-52 (VKPM B-8004); experiment: Growth of the oligomycin-resistant mutant in the presence of oligomycin; assay type: cell-based; details: mutant strain AGRI67-52
Experimental: A series of mutants resistant to 50 or 100 μg/ml oligomycin was selected from the strain Corynebacterium anmoniagenes AGRI45-11 (VKPM B-8009) using the procedure, described in the Example 1, but oligomycin was used instead of glycine. […] The best mutant, strain Corynebacterium ammoniagenes AGRI67-52 (VKPM B-8004) when tested in parallel as in Example 1 accumulated about 22 % more XMP than the parental strain Corynebacterium ammoniagenes AGRI45-11 (VKPM B-8009) (Table 4 ).

Compound: Polymyxin B
- Growth in the presence of 45 μg/ml polymyxin ([1]; 45 μg/ml polymyxin, parent strain AGRI45-11): −
- Growth in the presence of 45 μg/ml polymyxin [2]: +
- Concentration that inhibited the growth [3]: 40 to 50 µg/mL

Compound: CSCCC(N)C(=O)O (racemic) [DL-methionine]
- Effect on growth of the XMP producer strain [1]: inhibited the growth

Compound: N#CC(C#N)=NNc1cccc(Cl)c1 [CCCP, Carbonyl cyanide m-chlorophenyl hydrazone]
- Growth with 4 μg/ml CCCP ([1]; 4 μg/ml CCCP, parent strain AGRI45-11): −
- Growth with 4 μg/ml CCCP [4]: +

Compound: NCC(=O)O [glycine]
- Growth in the presence of 6% glycine ([1]; 6% glycine, parent strain AGRI45-11): −
- Growth in the presence of 6% glycine [5]: +

Compound: CO[C@H]1/C=C/O[C@@]2(C)Oc3c(C)c(O)c4c(O)c(c(/C=N/N5CCN(C)CC5)c(O)c4c3C2=O)NC(=O)/C(C)=C\C=C\[C@H](C)[C@H](O)[C@@H](C)[C@@H](O)[C@@H](C)[C@H](OC(C)=O)[C@@H]1C [rifampicin]
- Growth with 15 μg/ml rifampicin ([1]; 15 μg/ml rifampicin, parent strain AGRI45-11): −
- Growth with 15 μg/ml rifampicin [6]: +

Compound: C[S+]([O-])CCC(N)C(=O)O (racemic) [DL-methionine sulfoxide]
- Growth with 10 mg/ml DL-methionine sulfoxide + 20 mg/ml DL-methionine ([1]; 10 mg/ml DL-methionine sulfoxide + 20 mg/ml DL-methionine, parent strain AGRI45-11): −
- Effect on growth of the XMP producer strain [1]: inhibited the growth
- Growth with 10 mg/ml DL-methionine sulfoxide + 20 mg/ml DL-methionine [7]: +

Compound: CS(=O)(=O)CCC(N)C(=O)O (racemic) [DL-methionine sulfone]
- Growth with 10 mg/ml DL-methionine sulfone + 20 mg/ml DL-methionine ([1]; 10 mg/ml DL-methionine sulfone + 20 mg/ml DL-methionine, parent strain AGRI45-11): −
- Effect on growth of the XMP producer strain [1]: inhibited the growth
- Growth with 10 mg/ml DL-methionine sulfone + 20 mg/ml DL-methionine [8]: +

Compound: CC[C@H]1/C=C/C=C/C[C@@H](C)[C@H](O)[C@@](C)(O)C(=O)[C@@H](C)[C@H](O)[C@@H](C)C(=O)[C@@H](C)[C@H](O)[C@@H](C)/C=C/C(=O)O[C@@H]2[C@H](C)[C@H](CC1)O[C@]1(CC[C@H](C)[C@H](C[C@@H](C)O)O1)[C@H]2C [oligomycin]
- Growth in the presence of 100 μg/ml oligomycin ([1]; 100 μg/ml oligomycin, parent strain AGRI45-11): −
- Growth in the presence of 100 μg/ml oligomycin [9]: +

Source: patent publication US20020098552A1, “Method for producing xanthosine-5'-monophosphate by fermentation using mutant strains of Coryneform bacteria” (priority 2000, published 2002)
